The values that follow come from patent US8772305B2, “Substituted pyridinyl-pyrimidines and their use as medicaments” (Boehringer Ingelheim International GmbH, priority 2011, dated 2014).

This assay has as its target Recombinant human Syk (amino acids 342-635), GST-Syk kinase fusion protein (Homo sapiens (Human), UniProt P43405). Description: In vitro Syk kinase test (Kinase Glo luminescence). The settings on record: read-out: SYK Enzyme IC50, GST-Syk 4 nM, ATP remaining after 60 min at room temperature. For orientation: Kinase-Glo measures the ATP left after a reaction by luminescence.

Description: The catalytic activity of the GST-Syk kinase fusion protein was determined using the Kinase Glo® Luminescence Kinase test (Promega; V6712). In this homogeneous test the amount of ATP remaining after the kinase reaction is quantified by a luciferin-luciferase reaction using luminescence. The luminescence signal obtained correlates with the amount of ATP still present and thus correlates inversely with the activity of the protein kinase.
GST-Syk was diluted to 6.0 nM in the test buffer and 10 μl of this dilution were used in the kinase test (final concentration of Syk=4 nM in a total volume of 15 μl). […]
After 60 minutes, 10 μl Kinase-Glo® solution (Promega, Cat. #V6712) (heated to room temperature) were added to each well and incubation was continued for a further 15 minutes. The plates were read in a Microplate Scintillation and Luminescence Counter (Canberra Packard GmbH). […]
The output file of the “Counter” is a text file that contains the well number and measured counts in two columns. […] Based on this values the % inherent value for the measurement of each substance concentration was calculated using an “MS-Excel—VB macro”. […] The IC50 values were calculated from the % inhibition values using “GraphPadPrism” software (Version 5) (GraphPad Software Inc.).

One may read the IC50 as the point on the concentration scale where inhibition reaches its midpoint. For the molecule `CNC(=O)c1c[nH]c2ccc(Nc3nccc(-c4ccccn4)n3)cc12` [Example 284], the concentration for half-maximal inhibition (IC50) was found to be 17.7 nM.
